Values of other authors, collected in patent US20130085131A1, “HETEROCYCLIC COMPOUNDS AND THEIR USES” (Amgen Inc., priority 2010, published 2013).

Legend:
murine model of asthma = settings: ovalbumin-induced airway inflammation
p110δ = biological target: T1, p110δ (Homo sapiens, UniProt O00329)
T1 sequence (O00329 1-1044): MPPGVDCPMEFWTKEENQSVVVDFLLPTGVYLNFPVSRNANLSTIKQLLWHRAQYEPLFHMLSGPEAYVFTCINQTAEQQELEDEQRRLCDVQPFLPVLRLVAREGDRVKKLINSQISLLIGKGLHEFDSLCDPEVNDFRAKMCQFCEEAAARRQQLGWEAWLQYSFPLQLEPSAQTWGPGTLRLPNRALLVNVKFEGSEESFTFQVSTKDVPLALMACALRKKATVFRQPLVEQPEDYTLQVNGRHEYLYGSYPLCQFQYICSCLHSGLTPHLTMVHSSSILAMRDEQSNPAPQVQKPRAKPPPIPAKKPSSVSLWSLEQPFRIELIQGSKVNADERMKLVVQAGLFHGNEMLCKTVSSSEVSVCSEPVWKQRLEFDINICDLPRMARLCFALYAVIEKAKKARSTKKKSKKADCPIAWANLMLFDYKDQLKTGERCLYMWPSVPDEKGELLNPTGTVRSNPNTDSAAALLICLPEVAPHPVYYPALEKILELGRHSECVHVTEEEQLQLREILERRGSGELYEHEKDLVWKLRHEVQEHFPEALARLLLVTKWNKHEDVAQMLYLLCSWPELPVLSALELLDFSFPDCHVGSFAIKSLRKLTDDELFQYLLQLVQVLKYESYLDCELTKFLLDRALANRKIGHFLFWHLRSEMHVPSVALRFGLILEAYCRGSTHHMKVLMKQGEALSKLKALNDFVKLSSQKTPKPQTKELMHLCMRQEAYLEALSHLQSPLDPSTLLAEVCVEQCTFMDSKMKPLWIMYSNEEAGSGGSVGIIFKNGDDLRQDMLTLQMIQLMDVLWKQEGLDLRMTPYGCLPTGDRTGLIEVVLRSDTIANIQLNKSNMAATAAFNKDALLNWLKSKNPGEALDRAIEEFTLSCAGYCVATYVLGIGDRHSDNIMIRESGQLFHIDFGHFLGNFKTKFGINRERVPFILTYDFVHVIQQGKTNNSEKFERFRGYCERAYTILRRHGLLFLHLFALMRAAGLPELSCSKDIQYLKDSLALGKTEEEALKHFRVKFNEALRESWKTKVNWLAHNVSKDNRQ

[1] = system: murine model of allergic disease; settings: absence of functional delta (IC 87114 and p110δ D910A mice)
[2] = system: model of systemic lupus erythematosis; settings: in vivo
[3] = system: mouse model of rheumatoid arthritis

SMILES	inflammation and disease in a murine model of asthma (murine model of asthma)	inhibition of p110δ (p110δ)	passive cutaneous anaphylaxis (PCA) [1]	activity against any protein kinases tested (protein kinases)	onset of disease in a model of systemic lupus erythematosis [2]	efficacy in a mouse model of rheumatoid arthritis [3]
Cc1ccccc1-n1c(Cn2cnc3c(N)ncnc32)nc2cccc(C)c2c1=O [IC87114]	significantly ameliorate	high nanomolar range (triple digit)	significantly reduced	no activity	–	–
O=C1NC(=O)/C(=C\c2ccc3nccnc3c2)S1 [AS 605240]	–	–	–	–	delay onset of disease	efficacious
